# Experimental data reported in paper PMC3190643 (Journal of medicinal chemistry, 2011).
# Counter-ions that a name gives are not always drawn. Like-named read-outs stand apart in the source and are kept apart here.
# Assays:
# [1] = cited from earlier work
# [2] = in vivo; conditions: male, C57Bl/6J, mouse, iv
# [3] = test system: Salmonella typhimurium Ames II mixed strains (TA7001 to TA7006) and tester strain TA98; test: Ames II mutagenicity assay; conditions: with and without rat S9 activation, up to 1 mg/mL
# [4] = Metabolic stability in mouse liver microsomes; format: in vitro ADME; conditions: calculated from in vitro half-life; for CLint scaled at 100 μM: mouse, microsomes, pH 7.4, CLint,app
# [5] = for plasma concentration: IV dose of 3, mice, normalized to 8.13 mg/kg
# [6] = Metabolic stability in human liver microsomes; format: in vitro ADME; conditions: pH 7.4
# [7] = Metabolic stability in rat liver microsomes; format: in vitro ADME; conditions: pH 7.4
# [8] = molecular target: catalytic domain of human recombinant MMP-9 (Homo sapiens, UniProt P14780); conditions: slow-binding
# Chain of catalytic domain of human recombinant MMP-9 (P14780 107-444 limits assumed): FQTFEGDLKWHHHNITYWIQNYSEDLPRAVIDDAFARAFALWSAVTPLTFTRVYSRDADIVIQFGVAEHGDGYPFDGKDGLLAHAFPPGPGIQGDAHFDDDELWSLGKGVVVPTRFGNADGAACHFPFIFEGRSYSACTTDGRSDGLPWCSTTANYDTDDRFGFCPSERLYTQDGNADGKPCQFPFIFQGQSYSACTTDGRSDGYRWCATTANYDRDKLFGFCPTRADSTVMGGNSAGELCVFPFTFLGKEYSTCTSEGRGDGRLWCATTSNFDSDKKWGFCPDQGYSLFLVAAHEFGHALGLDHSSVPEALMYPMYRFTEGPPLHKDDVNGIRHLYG
# [9] = molecular target: T1, Human recombinant active MMP-2 (Homo sapiens, UniProt P08253); conditions: slow-binding
# T1 sequence (P08253 110-660): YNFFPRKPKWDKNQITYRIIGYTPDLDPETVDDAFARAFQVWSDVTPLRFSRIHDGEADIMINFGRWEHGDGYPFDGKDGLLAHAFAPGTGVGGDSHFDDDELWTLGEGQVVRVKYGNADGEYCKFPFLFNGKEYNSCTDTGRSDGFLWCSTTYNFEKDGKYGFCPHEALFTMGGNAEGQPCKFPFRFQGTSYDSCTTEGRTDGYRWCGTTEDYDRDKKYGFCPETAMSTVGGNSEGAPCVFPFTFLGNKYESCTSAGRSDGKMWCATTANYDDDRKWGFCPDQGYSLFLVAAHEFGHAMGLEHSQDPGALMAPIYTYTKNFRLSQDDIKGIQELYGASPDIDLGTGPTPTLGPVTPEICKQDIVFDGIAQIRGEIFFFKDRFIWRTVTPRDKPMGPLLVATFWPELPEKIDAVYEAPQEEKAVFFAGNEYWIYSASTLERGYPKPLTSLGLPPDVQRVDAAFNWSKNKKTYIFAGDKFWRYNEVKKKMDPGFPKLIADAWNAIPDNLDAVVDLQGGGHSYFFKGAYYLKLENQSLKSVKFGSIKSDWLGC
# [10] = molecular target: catalytic domain of MMP-14 (Homo sapiens, UniProt P50281); conditions: slow-binding
# [11] = humans; cited from earlier work
# [12] = t½ α (distribution half life), IV dose of 5d […], mice
# [13] = t½ β (terminal half life), IV dose of 5d […], mice
smiles,measurement,setting,value
"O=S(=O)(CC1CS1)c1ccc(Oc2ccccc2)cc1 (stereo not drawn) [Compound 1, (4-phenoxyphenylsulfonyl)methylthiirane]",intrinsic clearance in the rat,[1],117 mL/min/kg
same,t½ in rat liver microsomes,[1],12.0 min
"Nc1ccc(Oc2ccc(S(=O)(=O)CC3CS3)cc2)cc1 (stereo not drawn) [Compound 3, 4-[4-((Thiiran-2-yl)methylsulfonyl)phenoxy]benazamine · HCl salt]",Vd,[2],0.0125 L
same,clearance,[2],87.5 mL/min/kg
same,half-life,[2]; [12],2.9 min
same,half-life,[2]; [13],69 min
same,Ames II mutagenicity response,[3],negative (non-mutagenic)
same,"CLint,app",[4],102.8 ± 7.9 mL/min/kg
same,CLint scaled at 100 μM,[4],103 mL/min/kg
same,time plasma levels were higher than the Ki for MMP-9,"[5]; male, C57Bl/6J, mouse, in vivo",20 min
same,CLint scaled at 100 μM,[6],< 10 mL/min/kg
same,CLint scaled at 100 μM,[7],60 ± 1.8 mL/min/kg
NCC(=O)Nc1ccc(Oc2ccc(S(=O)(=O)CC3CS3)cc2)cc1 (stereo not drawn) [Compound 5a],"10^4koff, MMP-9 catalytic domain",[8],6.5 ± 0.6 s^−1
same,"10^−3kon, MMP-9 catalytic domain",[8],0.21 ± 0.04 M^−1s^−1
same,"10^4koff, MMP-2",[9],8.2 ± 0.9 s^−1
same,"10^−3kon, MMP-2",[9],1.9 ± 0.6 M^−1s^−1
NCCCC[C@H](N)C(=O)Nc1ccc(Oc2ccc(S(=O)(=O)CC3CS3)cc2)cc1 (stereo partly drawn) [Compound 5b],"10^4koff, MMP-9 catalytic domain",[8],4.2 ± 0.7 s^−1
same,"10^−3kon, MMP-9 catalytic domain",[8],0.27 ± 0.04 M^−1s^−1
same,"10^4koff, MMP-2",[9],2.1 ± 0.9 s^−1
same,"10^−3kon, MMP-2",[9],3.4 ± 0.1 M^−1s^−1
N[C@@H](CCC(=O)O)C(=O)Nc1ccc(Oc2ccc(S(=O)(=O)CC3CS3)cc2)cc1 (stereo partly drawn) [Compound 5c],"10^4koff, MMP-9 catalytic domain",[8],12.0 ± 0.7 s^−1
same,"10^−3kon, MMP-9 catalytic domain",[8],0.28 ± 0.02 M^−1s^−1
same,"10^4koff, MMP-2",[9],1.8 ± 1.6 s^−1
same,"10^−3kon, MMP-2",[9],2.5 ± 0.1 M^−1s^−1
N=C(N)NCCC[C@H](N)C(=O)Nc1ccc(Oc2ccc(S(=O)(=O)CC3CS3)cc2)cc1 (stereo partly drawn) [Compound 5d],Vd,[2],0.0978 L/kg
same,clearance,[2],58.2 mL/min/kg
same,half-life,"[2]; elimination (terminal) half life t½ β, IV dose of 5d […], mice",> 240 min
same,half-life,[2]; [12],< 1 min
same,half-life,[2]; [13],260 min
same,Ames II mutagenicity response,[3],negative (non-mutagenic)
same,CLint scaled at 100 μM,[4],< 47 mL/min/kg
same,CLint scaled at 100 μM,[6],< 10 mL/min/kg
same,CLint scaled at 100 μM,[7],23.7 ± 1.8 mL/min/kg
same,half-life at 100 μM,[7],≥ 60 min
"Nc1ccc(Oc2ccc(S(=O)(=O)CC3CS3)cc2)cc1O (stereo not drawn) [Compound 13, 2-Amino-5-(4-((thiiran-2-ylmethyl)sulfonyl)phenoxy)phenol]","10^4koff, MMP-9 catalytic domain",[8],5.3 ± 1.0 s^−1
same,"10^−3kon, MMP-9 catalytic domain",[8],1.1 ± 0.1 M^−1s^−1
same,"10^4koff, MMP-14 catalytic domain",[10],7.0 ± 1.6 s^−1
same,"10^−3kon, MMP-14 catalytic domain",[10],2.7 ± 0.3 M^−1 s^−1
same,"10^4koff, MMP-2",[9],1.4 ± 0.7 s^−1
same,"10^−3kon, MMP-2",[9],1.7 ± 0.1 M^−1s^−1
CC(=O)Nc1ccc(Oc2ccc(S(=O)(=O)CC3CS3)cc2)cc1 (stereo not drawn) [Compound M3],half-life,[2]; [12],12 min
same,half-life,"[2]; t½ α, IV dose of 3, mice",5.1 min
same,plasma concentration,[5]; 2-3 min,197 ± 61.6 nM
same,plasma concentration,[5]; 4-5 min,462 ± 313 nM
same,plasma concentration,[5]; 7-8 min,192 ± 12.1 nM
same,plasma concentration,[5]; 11-12 min,150 ± 27.2 nM
same,plasma concentration,[5]; 62-66 min,27.3 ± 6.28 nM
CC(C)c1cccc(C(C)C)c1O [propofol],Vd,[11],12.4 L/kg
